Active and inactive are the calls of the source.
Tests used:
[1] = target: Disintegrin and metalloproteinase domain-containing protein 17 (Homo sapiens, UniProt P78536); experiment: ADAM17 protease inhibitors, dose response, counter-screen for ADAM10 exosite inhibitor project, biochemical, quenched FRET substrate (AID 743253)
[2] = ADAM10 inhibitors, peptide cleavage, dose response, biochemical, QFRET (AID 743254);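 also: ADAM10 enzyme with the DM2 quenched FRET peptide as substrate; EDANS fluorescence gain as the protease cuts the substrate; inhibitor potency against ADAM10 proteolytic activity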
[3] = HEp-2 cell cytotoxicity, dose response, cytotoxicity control for RSV inhibitor project, HTS (AID 2410); assay type: functional; details: human respiratory syncytial virus
[4] = Luminescence Cell-Based Dose Retest to Confirm Inhibitors of Cancer Stem Cells. [Related pubchem assays (depositor defined):AID2717, AID2721]; assay type: functional; details: Homo sapiens
[5] = inhibitors of intracellular T. cruzi replication, confirmation, NIH3T3 host cells, beta-gal luminescence (AID 2044); assay type: functional, cell-based;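 also: intracellular parasites grown in NIH/3T3 mouse fibroblasts as host cells; luminescent beta-galactosidase reporter signal from transgenic T. cruzi replicating inside host cells; inhibitors lower the luminescence signal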
[6] = cytotoxicity toward NIH3T3 fibroblasts, dose response, counter-screen, cell-based, ATP luminescence, mouse fibroblasts (AID 2010); assay type: functional;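 also: cells exposed to compound for about 90 hours before reading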
[7] = Luminescence-based cell-based high throughput dose response assay to identify activators of the DAF-12 from the parasite S. stercoralis (ssDAF-12).; assay type: functional
[8] = target: T1, Oxysterols receptor LXR-beta (Homo sapiens, UniProt P55055); experiment: LXR agonists, Gal4 luciferase reporter, dose response, counter-screen for ssDAF-12 agonist project, cell-based, luminescence, HEK293, S. stercoralis campaign (AID 720737); assay type: functional; details: read-out: IC50 (the source's name)
T1 sequence (P55055 whole entry): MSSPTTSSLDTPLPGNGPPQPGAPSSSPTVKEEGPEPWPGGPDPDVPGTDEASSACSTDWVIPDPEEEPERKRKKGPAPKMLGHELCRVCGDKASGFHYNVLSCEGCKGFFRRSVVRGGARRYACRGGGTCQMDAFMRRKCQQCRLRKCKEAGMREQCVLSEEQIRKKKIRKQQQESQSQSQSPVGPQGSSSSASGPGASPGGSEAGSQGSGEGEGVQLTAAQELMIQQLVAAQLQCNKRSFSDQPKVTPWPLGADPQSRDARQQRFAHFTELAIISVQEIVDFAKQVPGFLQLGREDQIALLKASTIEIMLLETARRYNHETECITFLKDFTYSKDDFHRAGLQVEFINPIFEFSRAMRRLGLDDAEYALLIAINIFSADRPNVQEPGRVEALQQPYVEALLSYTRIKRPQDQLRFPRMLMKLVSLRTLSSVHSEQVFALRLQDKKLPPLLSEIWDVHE

[9] = target: T1, Oxysterols receptor LXR-beta; assay type: functional, cell-based
[10] = target: Peroxisome proliferator-activated receptor gamma/Nuclear receptor coactivator 2 (Homo sapiens, UniProt P37231); assay type: functional;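 also: agonist potency for raising coactivator recruitment to the receptor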
Sequence of Peroxisome proliferator-activated receptor gamma/Nuclear receptor coactivator 2 (P37231 whole entry): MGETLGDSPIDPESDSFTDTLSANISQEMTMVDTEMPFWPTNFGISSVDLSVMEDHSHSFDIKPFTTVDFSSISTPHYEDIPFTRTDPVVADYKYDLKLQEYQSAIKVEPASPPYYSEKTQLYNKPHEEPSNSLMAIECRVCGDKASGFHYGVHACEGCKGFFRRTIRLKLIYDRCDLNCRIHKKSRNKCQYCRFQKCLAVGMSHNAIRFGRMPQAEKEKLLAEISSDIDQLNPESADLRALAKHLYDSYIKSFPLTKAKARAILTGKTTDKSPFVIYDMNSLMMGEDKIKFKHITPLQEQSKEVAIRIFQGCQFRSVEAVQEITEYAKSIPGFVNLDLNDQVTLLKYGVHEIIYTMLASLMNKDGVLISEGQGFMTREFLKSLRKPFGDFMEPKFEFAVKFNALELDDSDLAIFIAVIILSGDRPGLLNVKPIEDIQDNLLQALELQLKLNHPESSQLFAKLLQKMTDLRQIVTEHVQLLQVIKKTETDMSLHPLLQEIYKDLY
Sequence of Peroxisome proliferator-activated receptor gamma/Nuclear receptor coactivator 2 (Q15596 whole entry, further chain): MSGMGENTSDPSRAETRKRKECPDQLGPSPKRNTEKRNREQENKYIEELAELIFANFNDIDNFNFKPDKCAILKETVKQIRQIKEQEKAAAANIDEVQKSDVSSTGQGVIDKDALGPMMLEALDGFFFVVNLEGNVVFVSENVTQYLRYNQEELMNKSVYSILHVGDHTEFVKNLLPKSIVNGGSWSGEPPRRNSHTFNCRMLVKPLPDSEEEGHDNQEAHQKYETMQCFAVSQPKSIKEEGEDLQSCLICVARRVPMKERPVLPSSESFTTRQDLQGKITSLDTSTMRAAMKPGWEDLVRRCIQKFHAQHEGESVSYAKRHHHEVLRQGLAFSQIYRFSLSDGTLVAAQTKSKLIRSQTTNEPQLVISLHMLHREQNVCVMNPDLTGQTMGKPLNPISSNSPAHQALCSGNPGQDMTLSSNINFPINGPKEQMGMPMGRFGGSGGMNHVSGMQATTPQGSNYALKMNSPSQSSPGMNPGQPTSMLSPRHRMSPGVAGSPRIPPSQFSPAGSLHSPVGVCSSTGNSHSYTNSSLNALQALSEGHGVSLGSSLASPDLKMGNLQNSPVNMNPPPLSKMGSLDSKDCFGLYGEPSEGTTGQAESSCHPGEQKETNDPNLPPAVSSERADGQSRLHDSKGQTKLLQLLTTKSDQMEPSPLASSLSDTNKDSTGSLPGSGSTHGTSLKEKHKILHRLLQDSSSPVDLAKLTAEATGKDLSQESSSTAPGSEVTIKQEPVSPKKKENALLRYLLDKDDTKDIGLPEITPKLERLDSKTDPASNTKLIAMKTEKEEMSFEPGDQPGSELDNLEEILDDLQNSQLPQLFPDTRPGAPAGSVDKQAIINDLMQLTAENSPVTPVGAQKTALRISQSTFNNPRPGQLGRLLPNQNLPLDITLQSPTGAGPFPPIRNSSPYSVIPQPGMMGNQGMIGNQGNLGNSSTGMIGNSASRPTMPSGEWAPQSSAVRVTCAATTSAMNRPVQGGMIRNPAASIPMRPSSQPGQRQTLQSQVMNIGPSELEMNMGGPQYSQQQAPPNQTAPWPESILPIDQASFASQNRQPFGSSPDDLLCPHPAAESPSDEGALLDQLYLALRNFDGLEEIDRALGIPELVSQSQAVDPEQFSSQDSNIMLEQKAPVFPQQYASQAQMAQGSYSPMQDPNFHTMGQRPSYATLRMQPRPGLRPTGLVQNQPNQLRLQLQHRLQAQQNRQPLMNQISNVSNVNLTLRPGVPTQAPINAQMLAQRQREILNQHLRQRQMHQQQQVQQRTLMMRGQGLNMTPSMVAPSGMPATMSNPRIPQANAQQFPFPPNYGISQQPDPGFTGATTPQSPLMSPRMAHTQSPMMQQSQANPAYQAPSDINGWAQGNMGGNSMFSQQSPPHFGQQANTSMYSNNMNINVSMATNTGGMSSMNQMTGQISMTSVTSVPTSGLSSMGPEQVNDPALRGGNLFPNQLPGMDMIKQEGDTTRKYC

[11] = target: Peroxisome proliferator-activated receptor gamma/Nuclear receptor coactivator 3 (Homo sapiens, UniProt P37231); assay type: functional;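 also: agonist potency for raising coactivator recruitment to the receptor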
[12] = target: Peroxisome proliferator-activated receptor gamma/Nuclear receptor coactivator 1 (Homo sapiens, UniProt P37231); assay type: functional;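 also: agonist potency as compounds enhance coactivator SRC-1 recruitment to PPARgamma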
Sequence of Peroxisome proliferator-activated receptor gamma/Nuclear receptor coactivator 1 (P37231 whole entry): as the sequence (P37231 whole entry) above
Sequence of Peroxisome proliferator-activated receptor gamma/Nuclear receptor coactivator 1 (Q15788 whole entry, further chain): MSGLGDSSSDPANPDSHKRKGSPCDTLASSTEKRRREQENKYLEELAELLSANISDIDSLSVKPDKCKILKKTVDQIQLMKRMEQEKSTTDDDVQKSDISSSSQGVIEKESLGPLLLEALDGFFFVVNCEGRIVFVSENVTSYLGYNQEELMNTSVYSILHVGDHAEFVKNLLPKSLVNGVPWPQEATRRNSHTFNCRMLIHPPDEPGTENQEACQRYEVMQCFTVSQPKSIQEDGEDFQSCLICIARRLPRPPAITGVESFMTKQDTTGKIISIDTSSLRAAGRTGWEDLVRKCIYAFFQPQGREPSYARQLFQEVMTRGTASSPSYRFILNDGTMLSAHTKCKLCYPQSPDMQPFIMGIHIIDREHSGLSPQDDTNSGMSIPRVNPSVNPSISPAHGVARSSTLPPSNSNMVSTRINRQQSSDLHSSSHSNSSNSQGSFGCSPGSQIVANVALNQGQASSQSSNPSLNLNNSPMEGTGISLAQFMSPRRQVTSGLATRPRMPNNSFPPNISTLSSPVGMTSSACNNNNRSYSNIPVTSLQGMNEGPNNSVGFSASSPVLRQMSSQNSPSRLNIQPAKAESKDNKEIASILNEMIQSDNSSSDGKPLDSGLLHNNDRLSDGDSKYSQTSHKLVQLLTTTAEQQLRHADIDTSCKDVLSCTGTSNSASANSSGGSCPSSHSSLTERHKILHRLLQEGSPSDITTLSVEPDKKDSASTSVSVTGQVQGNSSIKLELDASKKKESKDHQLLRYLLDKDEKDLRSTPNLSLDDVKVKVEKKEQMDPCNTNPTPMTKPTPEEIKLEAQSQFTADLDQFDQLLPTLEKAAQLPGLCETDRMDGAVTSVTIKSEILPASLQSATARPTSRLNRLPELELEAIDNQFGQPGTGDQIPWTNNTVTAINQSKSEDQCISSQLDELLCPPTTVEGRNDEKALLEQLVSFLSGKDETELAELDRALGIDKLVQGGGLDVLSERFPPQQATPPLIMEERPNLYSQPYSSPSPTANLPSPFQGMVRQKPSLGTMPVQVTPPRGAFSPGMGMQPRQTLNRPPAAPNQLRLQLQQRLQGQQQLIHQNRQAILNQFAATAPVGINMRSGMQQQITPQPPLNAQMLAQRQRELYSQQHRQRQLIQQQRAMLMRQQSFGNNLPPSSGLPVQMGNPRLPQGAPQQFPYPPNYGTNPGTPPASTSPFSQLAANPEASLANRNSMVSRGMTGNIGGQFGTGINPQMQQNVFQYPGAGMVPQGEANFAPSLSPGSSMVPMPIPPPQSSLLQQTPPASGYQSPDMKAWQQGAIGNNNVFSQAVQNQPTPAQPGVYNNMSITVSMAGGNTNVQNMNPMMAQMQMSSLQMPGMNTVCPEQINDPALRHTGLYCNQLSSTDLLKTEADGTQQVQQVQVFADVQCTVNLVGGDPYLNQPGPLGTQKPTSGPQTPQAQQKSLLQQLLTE

[13] = target: E3 ubiquitin-protein ligase Mdm2 (Homo sapiens, UniProt Q00987); experiment: enhancers of MDM2-luciferase reporter signal, concentration-effect titration, project on inhibitors of MDM2 ubiquitin ligase, cellular assay, luminescent readout, 384-well plate format (AID 1394); assay type: functional;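 also: MDM2 E3 inhibitors raise luminescence so EC50 is for signal enhancement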
[14] = cytotoxicity in HPDE-C7 cells, cell-based, fluorescence, HTS (AID 430); assay type: functional; details: Homo sapiens
[15] = cytotoxicity in KRAS-transformed pancreatic duct cells, primary screen, cell-based, fluorescence, HTS (AID 431); assay type: functional; details: Homo sapiens;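 also: cell line used: HPDE-C7K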
Estrogen receptor beta = Estrogen receptor beta (Homo sapiens, UniProt Q92731); experiment: ERβ–SRC-3 coactivator interaction inhibitors, confirmation, orthogonal assay, biochemical, ELISA, streptavidin-HRP readout (AID 1060)
Cytochrome P450 2C9 = Cytochrome P450 2C9 (Homo sapiens, UniProt P11712)
Cytochrome P450 1A2 = target: T2, Cytochrome P450 1A2 (Homo sapiens, UniProt P05177);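 also: PubChem cytochrome P450 panel assay, CYP1A2 panel member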
T2 sequence (P05177 whole entry): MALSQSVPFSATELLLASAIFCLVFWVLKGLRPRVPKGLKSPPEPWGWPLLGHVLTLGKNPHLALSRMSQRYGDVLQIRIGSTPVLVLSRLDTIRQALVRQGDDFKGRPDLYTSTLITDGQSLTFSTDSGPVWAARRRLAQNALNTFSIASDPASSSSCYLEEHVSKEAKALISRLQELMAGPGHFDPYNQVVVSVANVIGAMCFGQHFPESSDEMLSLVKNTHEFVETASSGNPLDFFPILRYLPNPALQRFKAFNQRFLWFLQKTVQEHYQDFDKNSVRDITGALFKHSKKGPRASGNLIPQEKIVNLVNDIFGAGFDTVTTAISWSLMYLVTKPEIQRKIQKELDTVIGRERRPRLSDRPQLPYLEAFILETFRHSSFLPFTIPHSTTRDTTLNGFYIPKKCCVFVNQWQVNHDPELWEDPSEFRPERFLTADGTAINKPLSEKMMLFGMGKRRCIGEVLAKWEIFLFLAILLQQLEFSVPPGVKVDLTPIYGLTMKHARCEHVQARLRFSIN

[16] = microbe, parasite or virus in culture; assay type: functional; details: Mycobacterium tuberculosis
[17] = target: Luciferin 4-monooxygenase (Photinus pyralis, UniProt P08659); experiment: firefly luciferase enzyme inhibitors, dose response, biochemical, luminescence (AID 1891)
[18] = Luminescence Cell-Based Dose Confirmation HTS to Identify Inhibitors of Platelet Dense Granule Release. [Related pubchem assays: 1663 (Primary HTS), 1678 (Summary of Project)]; assay type: functional
[19] = target: T3, Epstein-Barr nuclear antigen 1 (Epstein-Barr virus (strain B95-8) (HHV-4) (Human herpesvirus 4), UniProt P03211); experiment: EBNA-1 inhibitors, dose response, biochemical, fluorescence polarization, 1536-well (AID 2381); parameters: species or system human gammaherpesvirus 4;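 also: fluorescence polarization of a Cy5 DNA probe bound by EBNA-1 protein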
T3 sequence (P03211 whole entry): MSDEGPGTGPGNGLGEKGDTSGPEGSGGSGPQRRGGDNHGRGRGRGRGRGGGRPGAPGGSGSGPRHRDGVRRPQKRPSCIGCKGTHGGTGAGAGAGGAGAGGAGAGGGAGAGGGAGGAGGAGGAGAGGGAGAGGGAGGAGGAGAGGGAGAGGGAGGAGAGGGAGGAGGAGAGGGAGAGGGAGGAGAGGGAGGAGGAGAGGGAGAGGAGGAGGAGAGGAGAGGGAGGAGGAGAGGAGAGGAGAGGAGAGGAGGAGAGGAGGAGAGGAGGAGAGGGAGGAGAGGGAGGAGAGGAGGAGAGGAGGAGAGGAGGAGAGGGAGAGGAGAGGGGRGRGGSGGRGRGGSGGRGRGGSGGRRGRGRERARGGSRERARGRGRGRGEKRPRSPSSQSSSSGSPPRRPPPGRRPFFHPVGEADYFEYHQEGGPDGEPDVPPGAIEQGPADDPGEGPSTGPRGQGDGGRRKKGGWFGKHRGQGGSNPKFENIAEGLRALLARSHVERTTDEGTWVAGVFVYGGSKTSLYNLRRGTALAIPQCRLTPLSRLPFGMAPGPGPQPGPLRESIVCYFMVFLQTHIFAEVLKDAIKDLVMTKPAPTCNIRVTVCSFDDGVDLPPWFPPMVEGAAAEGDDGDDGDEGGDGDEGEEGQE

[20] = target: T4, Lytic switch protein BZLF1 (Epstein-Barr virus (strain B95-8) (HHV-4) (Human herpesvirus 4), UniProt P03206); experiment: EBV ZTA inhibitors, dose response, counter-screen for EBNA-1 inhibitor project, biochemical, fluorescence polarization, Epstein-Barr virus, 1536-well (AID 2377); parameters: species or system human gammaherpesvirus 4;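 also: fluorescence polarization of Cy5-labelled ZRE DNA probe bound by purified Zta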
T4 sequence (P03206 whole entry): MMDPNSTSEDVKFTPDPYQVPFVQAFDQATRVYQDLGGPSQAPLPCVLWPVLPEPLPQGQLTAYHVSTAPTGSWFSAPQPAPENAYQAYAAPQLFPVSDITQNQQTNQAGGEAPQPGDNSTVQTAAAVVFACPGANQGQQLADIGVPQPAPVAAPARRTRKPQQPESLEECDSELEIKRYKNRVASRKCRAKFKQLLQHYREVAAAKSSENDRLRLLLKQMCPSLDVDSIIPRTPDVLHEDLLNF

[21] = target: Nucleotide-binding oligomerization domain-containing protein 2 (Homo sapiens, UniProt Q9HC29); experiment: NOD2 signaling inhibitors, cell-based, luminescence, uHTS, HEK293 (AID 1566); assay type: functional
HEK293 [22] = experiment: cells; assay type: functional, cell-based; details: Homo sapiens
HEK293 [23] = experiment: NOD2 signaling inhibitors in MDP-stimulated cells, cell-based, uHTS, luminescence (AID 2001); assay type: functional; details: Homo sapiens
HEK293 [24] = experiment: cells; assay type: functional, cell-based; details: Homo sapiens; remark: listed apart in the source
HEK293 [25] = experiment: cells; assay type: functional, cell-based; details: Homo sapiens; remark: listed apart in the source
[26] = MC4R antagonists, dose response, counter-screen for LGR2 antagonist project, cell-based, plate reader, cherry pick (AID 743444); assay type: functional;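 also: transfected HEK 293 cells stimulated with alpha-MSH peptide; potency of inhibitors of the alpha-MSH evoked signal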
HEK293 [27] = experiment: NOD1 signaling inhibitors, primary screen, cell-based, luminescence, uHTS (AID 1578); assay type: functional; details: Homo sapiens
[28] = LGR2 antagonists, dose response, cell-based, HEK293, CRE-luciferase reporter, cherry pick, set 2 (AID 743343); assay type: functional;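 also: transfected cells were stimulated with diluted bursicon conditioned medium after compound addition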
[29] = A549 cell cytotoxicity, dose response, cytotoxicity control, plate reader, cherry-pick, antagonist series (AID 743412); assay type: functional, cell-based
[30] = Luminescence Cell-Based Dose Confirmation HTS to Identify Inhibitors of Polyadenylation.; assay type: functional

Sequence of Disintegrin and metalloproteinase domain-containing protein 17 (P78536 whole entry, the tested form may be a part): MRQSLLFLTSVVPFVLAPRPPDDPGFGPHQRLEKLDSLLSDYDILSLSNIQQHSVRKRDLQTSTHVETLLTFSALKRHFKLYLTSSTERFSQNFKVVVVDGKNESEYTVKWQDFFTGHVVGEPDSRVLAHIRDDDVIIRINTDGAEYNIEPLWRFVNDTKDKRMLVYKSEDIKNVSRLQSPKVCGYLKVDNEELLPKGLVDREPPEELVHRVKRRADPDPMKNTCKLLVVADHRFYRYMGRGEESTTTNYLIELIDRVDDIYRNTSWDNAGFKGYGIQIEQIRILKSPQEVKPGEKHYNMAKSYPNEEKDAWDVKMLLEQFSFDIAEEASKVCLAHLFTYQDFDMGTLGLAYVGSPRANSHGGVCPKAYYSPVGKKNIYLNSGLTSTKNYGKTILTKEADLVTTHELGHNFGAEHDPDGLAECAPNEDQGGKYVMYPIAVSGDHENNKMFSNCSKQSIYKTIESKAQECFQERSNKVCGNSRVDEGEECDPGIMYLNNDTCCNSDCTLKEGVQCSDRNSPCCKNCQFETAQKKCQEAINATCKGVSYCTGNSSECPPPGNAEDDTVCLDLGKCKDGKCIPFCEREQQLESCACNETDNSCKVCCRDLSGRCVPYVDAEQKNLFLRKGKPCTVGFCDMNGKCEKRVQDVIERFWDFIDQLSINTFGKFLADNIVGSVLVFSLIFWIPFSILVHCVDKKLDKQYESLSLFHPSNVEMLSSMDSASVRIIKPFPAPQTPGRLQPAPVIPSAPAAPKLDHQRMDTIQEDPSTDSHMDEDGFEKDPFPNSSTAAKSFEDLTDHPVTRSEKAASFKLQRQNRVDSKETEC

## CC(/C=C1\SC(=O)N(CC(=O)Nc2cccc(O)c2)C1=O)=C\c1ccccc1
[1]
  IC50: > 69.5 µM (inactive)
[2]
  IC50: 10.2 µM (inactive)
[3]
  CC50: 13.9 µM (active)
[4]
  AC50: 4.04 µM (active)

## O=C(CN(Cc1cccs1)S(=O)(=O)c1ccc(S(=O)(=O)NC2CCCCC2)cc1)Nc1ccccc1
[1]
  IC50: > 69.5 µM (inactive)
[2]
  IC50: 7.69 µM (active)
[5]
  EC50: 2.08 µM (active)
[6]
  EC50: > 60 µM (not active)

## Fc1ccccc1-c1ccc(/C=N/Nc2nc3ccccc3[nH]2)o1
[7]
  IC50: > 67.5 µM (inactive)
[8]
  EC50: > 67.5 µM (inactive)

## CCOC(=O)c1s/c(=N\C(=O)c2ccc(Cl)s2)n(C)c1C
[9]
  EC50: > 67.5 µM (inactive)
cells
  EC50: > 67.5 µM (inactive)

## O=C(CSc1nc2cccnc2n1Cc1ccccc1)NCc1ccco1
[10]
  EC50: > 79.4 µM (not active)
[11]
  EC50: > 79.4 µM (not active)
[12]
  EC50: > 79.4 µM (not active)

## Clc1ccccc1Cn1nnc(-c2ccccc2)n1
[7]
  IC50: > 67.5 µM (inactive)
[8]
  EC50: > 67.5 µM (inactive)

## CN(C)c1cc(C(F)(F)F)nc(-c2ccccn2)n1
[13]
  EC50: 4.16 µM (not active)

## O=C(c1ccc(F)cc1)N1CCC(N2CCCCCC2)CC1
[14]
  EC50: > 20 µM (not active)
[15]
  EC50: > 20 µM (not active)

## CCN1CCN(Cc2ccc(NC(=O)Nc3cccs3)cc2)CC1
Estrogen receptor beta
  IC50: 0.41 µM (not active)
Cytochrome P450 2C9
  AC50: 7.94 µM (inconclusive)
Cytochrome P450 1A2
  AC50: 12.6 µM (inconclusive)

## COc1ccc(C2C(C(=O)N3CCN(C)CC3)c3cc(OC)c(OC)cc3C(=O)N2C)cc1 (configuration not stated)
[13]
  EC50: 2.94 µM (not active)

## O=C(NC(C(=O)N/N=C/c1cccc2ccccc12)c1nnc(O)c2ccccc12)c1ccccc1 (configuration not stated)
[1]
  IC50: > 69.5 µM (inactive)
[2]
  IC50: > 69.5 µM (inactive)
[16]
  CC50: > 40 µM (active)

## COc1ccc(C(=O)/C=C/Nc2cc(C)ccn2)cc1
[9]
  EC50: > 67.6 µM (inactive)
[17]
  EC50: 1.69 µM (active)
[18]
  EC50: 7.6 µM (active)
cells
  EC50: > 67.6 µM (inactive)

## Oc1ccccc1-c1cc(-c2ccccc2Cl)[nH]n1
[7]
  IC50: > 67.5 µM (inactive)
[8]
  EC50: > 67.5 µM (inactive)

## COc1ccc(NCCNc2ccc(OC)cc2)cc1
[10]
  EC50: > 79.4 µM (not active)
[11]
  EC50: > 79.4 µM (not active)
[12]
  EC50: > 79.4 µM (not active)

## CCOC(=O)c1sc(NC(=O)COc2ccc3c(c2)OCO3)nc1C
[19]
  IC50: 7.18 µM (active)
[20]
  IC50: > 111 µM (not active)

## COc1ccc(-n2ncc3c(N(C)C4CCCCC4)ncnc32)cc1
[21]
  EC50: < 0.31 µM (inactive)
HEK293 [22]
  IC50: > 20 µM (inactive)
HEK293 [23]
  IC50: 10.7 µM (inactive)
HEK293 [24]
  IC50: 8.11 µM (active)
HEK293 [25]
  IC50: > 20 µM (inactive)
[26]
  AC50: 0.578 µM (active)
HEK293 [27]
  EC50: 7.56 µM (active)
[28]
  AC50: 0.246 µM (active)
[29]
  AC50: > 52 µM (inactive)

## CCOc1ccc(OCC)c(NC(=O)C(NS(=O)(=O)c2ccc3c(c2)oc(=O)n3C)C(C)C)c1 (configuration not stated)
[19]
  IC50: > 5.47 µM (active)
[20]
  IC50: > 111 µM (not active)

## CC(=O)c1c(COC(=O)c2ccc(Cl)cc2)nc2ccccc2[n+]1[O-]
[30]
  EC50: > 120 µM (not active)

## Cc1cccc(N(C(=O)c2snc(C(N)=O)c2N)C(C(=O)NCC2CCCO2)c2ccc(N(C)C)cc2)c1C (configuration not stated)
[19]
  IC50: 2.73 µM (active)
[20]
  IC50: > 111 µM (not active)

From ChEMBL document CHEMBL1201862, “PubChem BioAssay data set” (2004)
